Laboratory results from PubChem BioAssay AID1845212 (Molecular Pharmacology Branch, DTP, NCI, 2023).
Activity calls are given as the source filed them. Rule for the calls: active = viability on the fitted dose curve at most 10% of control; inactive = the rest.

System: NCI-H719 tumor spheroids, viability
Assay: Anticancer human tumor NCI-H719 cell line growth inhibition;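 for IC50: spheroids exposed to compounds for seven days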;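 for viability, T/C: spheroids exposed to compounds for seven days; percent viability relative to DMSO vehicle control as 100%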
Conditions: curve of first compound; second compound 1 µM; spheroids with HUVEC and MSC
Method in brief: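 Complex spheroids of malignant cells with endothelial cells and mesenchymal stem cells; agents alone or combined, from near clinical Cmax (or 10 microM if unknown) down in half-log steps, 0.25% DMSO final.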

Compound | IC50 [µM]
CC(C)n1c(=O)n(C)c2cnc3cc(F)c(-c4ccc(OCCCN5CCCCC5)nc4)cc3c21 + Cn1nnc2c(C(N)=O)ncn2c1=O | > 10
CC1COCCN1c1cc(-c2ccnn2C)c2ccnc(-c3ccn[nH]3)c2n1 (configuration not stated) + Cn1nnc2c(C(N)=O)ncn2c1=O | 0.0811
COc1cc(C)[nH]c(=O)c1CN1CCc2c(Cl)cc(C(OC)C3COC3)c(Cl)c2C1=O (configuration not stated) + Cn1nnc2c(C(N)=O)ncn2c1=O | > 10
COc1ccc([C@@H](O)c2cc(-c3ncnc4cc(N5CCOCC5)ccc34)c(F)cc2Cl)nn1 + Cn1nnc2c(C(N)=O)ncn2c1=O | 0.797
Cc1cc(C)c(CNC(=O)c2cc(-c3ccc(CN4CCOCC4)cc3)cc3c2cnn3C2CCCC2)c(=O)[nH]1 + Cn1nnc2c(C(N)=O)ncn2c1=O | > 10
[2H]c1nc(C)nc([2H])c1-c1cc(NC[C@@H](C)c2cccc3c(C(=O)NC)ccnc23)ncn1 + Cn1nnc2c(C(N)=O)ncn2c1=O | > 10

Same assay, conditions: curve of first compound; second compound 3.16 µM; spheroids with HUVEC and MSC

Compound | IC50 [µM]
CC(C)n1c(=O)n(C)c2cnc3cc(F)c(-c4ccc(OCCCN5CCCCC5)nc4)cc3c21 + Cn1nnc2c(C(N)=O)ncn2c1=O | > 10
CC1COCCN1c1cc(-c2ccnn2C)c2ccnc(-c3ccn[nH]3)c2n1 (configuration not stated) + Cn1nnc2c(C(N)=O)ncn2c1=O | 0.0602
COc1cc(C)[nH]c(=O)c1CN1CCc2c(Cl)cc(C(OC)C3COC3)c(Cl)c2C1=O (configuration not stated) + Cn1nnc2c(C(N)=O)ncn2c1=O | > 10
COc1ccc([C@@H](O)c2cc(-c3ncnc4cc(N5CCOCC5)ccc34)c(F)cc2Cl)nn1 + Cn1nnc2c(C(N)=O)ncn2c1=O | 0.873
Cc1cc(C)c(CNC(=O)c2cc(-c3ccc(CN4CCOCC4)cc3)cc3c2cnn3C2CCCC2)c(=O)[nH]1 + Cn1nnc2c(C(N)=O)ncn2c1=O | > 10
[2H]c1nc(C)nc([2H])c1-c1cc(NC[C@@H](C)c2cccc3c(C(=O)NC)ccnc23)ncn1 + Cn1nnc2c(C(N)=O)ncn2c1=O | > 10

Same assay, conditions: curve of first compound; second compound 10 µM; spheroids with HUVEC and MSC

Compound | IC50 [µM]
CC(C)n1c(=O)n(C)c2cnc3cc(F)c(-c4ccc(OCCCN5CCCCC5)nc4)cc3c21 + Cn1nnc2c(C(N)=O)ncn2c1=O | > 10
CC1COCCN1c1cc(-c2ccnn2C)c2ccnc(-c3ccn[nH]3)c2n1 (configuration not stated) + Cn1nnc2c(C(N)=O)ncn2c1=O | 0.0638
COc1cc(C)[nH]c(=O)c1CN1CCc2c(Cl)cc(C(OC)C3COC3)c(Cl)c2C1=O (configuration not stated) + Cn1nnc2c(C(N)=O)ncn2c1=O | > 10
COc1ccc([C@@H](O)c2cc(-c3ncnc4cc(N5CCOCC5)ccc34)c(F)cc2Cl)nn1 + Cn1nnc2c(C(N)=O)ncn2c1=O | 1.1
Cc1cc(C)c(CNC(=O)c2cc(-c3ccc(CN4CCOCC4)cc3)cc3c2cnn3C2CCCC2)c(=O)[nH]1 + Cn1nnc2c(C(N)=O)ncn2c1=O | > 10
[2H]c1nc(C)nc([2H])c1-c1cc(NC[C@@H](C)c2cccc3c(C(=O)NC)ccnc23)ncn1 + Cn1nnc2c(C(N)=O)ncn2c1=O | > 10

Same assay, conditions: curve of first compound; second compound 31.6 µM; spheroids with HUVEC and MSC

Compound | IC50 [µM]
CC(C)n1c(=O)n(C)c2cnc3cc(F)c(-c4ccc(OCCCN5CCCCC5)nc4)cc3c21 + Cn1nnc2c(C(N)=O)ncn2c1=O | > 10
CC1COCCN1c1cc(-c2ccnn2C)c2ccnc(-c3ccn[nH]3)c2n1 (configuration not stated) + Cn1nnc2c(C(N)=O)ncn2c1=O | 0.0389
COc1cc(C)[nH]c(=O)c1CN1CCc2c(Cl)cc(C(OC)C3COC3)c(Cl)c2C1=O (configuration not stated) + Cn1nnc2c(C(N)=O)ncn2c1=O | > 10
COc1ccc([C@@H](O)c2cc(-c3ncnc4cc(N5CCOCC5)ccc34)c(F)cc2Cl)nn1 + Cn1nnc2c(C(N)=O)ncn2c1=O | 0.81
Cc1cc(C)c(CNC(=O)c2cc(-c3ccc(CN4CCOCC4)cc3)cc3c2cnn3C2CCCC2)c(=O)[nH]1 + Cn1nnc2c(C(N)=O)ncn2c1=O | > 10
[2H]c1nc(C)nc([2H])c1-c1cc(NC[C@@H](C)c2cccc3c(C(=O)NC)ccnc23)ncn1 + Cn1nnc2c(C(N)=O)ncn2c1=O | > 10

Same assay, conditions: curve of first compound; second compound 100 µM; spheroids with HUVEC and MSC

Compound | IC50 [µM]
CC(C)n1c(=O)n(C)c2cnc3cc(F)c(-c4ccc(OCCCN5CCCCC5)nc4)cc3c21 + Cn1nnc2c(C(N)=O)ncn2c1=O | > 10
CC1COCCN1c1cc(-c2ccnn2C)c2ccnc(-c3ccn[nH]3)c2n1 (configuration not stated) + Cn1nnc2c(C(N)=O)ncn2c1=O | < 0.0316
COc1cc(C)[nH]c(=O)c1CN1CCc2c(Cl)cc(C(OC)C3COC3)c(Cl)c2C1=O (configuration not stated) + Cn1nnc2c(C(N)=O)ncn2c1=O | > 10
COc1ccc([C@@H](O)c2cc(-c3ncnc4cc(N5CCOCC5)ccc34)c(F)cc2Cl)nn1 + Cn1nnc2c(C(N)=O)ncn2c1=O | 0.506
Cc1cc(C)c(CNC(=O)c2cc(-c3ccc(CN4CCOCC4)cc3)cc3c2cnn3C2CCCC2)c(=O)[nH]1 + Cn1nnc2c(C(N)=O)ncn2c1=O | > 10
[2H]c1nc(C)nc([2H])c1-c1cc(NC[C@@H](C)c2cccc3c(C(=O)NC)ccnc23)ncn1 + Cn1nnc2c(C(N)=O)ncn2c1=O | > 10

Same assay, conditions: second compound 1 µM; first compound 0.0316 µM; stronger effect = lower value; spheroids with HUVEC and MSC

Compound | viability, T/C [%]
CC(C)n1c(=O)n(C)c2cnc3cc(F)c(-c4ccc(OCCCN5CCCCC5)nc4)cc3c21 + Cn1nnc2c(C(N)=O)ncn2c1=O | 94.3
CC1COCCN1c1cc(-c2ccnn2C)c2ccnc(-c3ccn[nH]3)c2n1 (configuration not stated) + Cn1nnc2c(C(N)=O)ncn2c1=O | 60.4
COc1cc(C)[nH]c(=O)c1CN1CCc2c(Cl)cc(C(OC)C3COC3)c(Cl)c2C1=O (configuration not stated) + Cn1nnc2c(C(N)=O)ncn2c1=O | 101
COc1ccc([C@@H](O)c2cc(-c3ncnc4cc(N5CCOCC5)ccc34)c(F)cc2Cl)nn1 + Cn1nnc2c(C(N)=O)ncn2c1=O | 80.1
Cc1cc(C)c(CNC(=O)c2cc(-c3ccc(CN4CCOCC4)cc3)cc3c2cnn3C2CCCC2)c(=O)[nH]1 + Cn1nnc2c(C(N)=O)ncn2c1=O | 96.9
[2H]c1nc(C)nc([2H])c1-c1cc(NC[C@@H](C)c2cccc3c(C(=O)NC)ccnc23)ncn1 + Cn1nnc2c(C(N)=O)ncn2c1=O | 93.8

Same assay, conditions: second compound 1 µM; first compound 0.1 µM; stronger effect = lower value; spheroids with HUVEC and MSC

Compound | viability, T/C [%]
CC(C)n1c(=O)n(C)c2cnc3cc(F)c(-c4ccc(OCCCN5CCCCC5)nc4)cc3c21 + Cn1nnc2c(C(N)=O)ncn2c1=O | 107
CC1COCCN1c1cc(-c2ccnn2C)c2ccnc(-c3ccn[nH]3)c2n1 (configuration not stated) + Cn1nnc2c(C(N)=O)ncn2c1=O | 47.4
COc1cc(C)[nH]c(=O)c1CN1CCc2c(Cl)cc(C(OC)C3COC3)c(Cl)c2C1=O (configuration not stated) + Cn1nnc2c(C(N)=O)ncn2c1=O | 101
COc1ccc([C@@H](O)c2cc(-c3ncnc4cc(N5CCOCC5)ccc34)c(F)cc2Cl)nn1 + Cn1nnc2c(C(N)=O)ncn2c1=O | 78.5
Cc1cc(C)c(CNC(=O)c2cc(-c3ccc(CN4CCOCC4)cc3)cc3c2cnn3C2CCCC2)c(=O)[nH]1 + Cn1nnc2c(C(N)=O)ncn2c1=O | 105
[2H]c1nc(C)nc([2H])c1-c1cc(NC[C@@H](C)c2cccc3c(C(=O)NC)ccnc23)ncn1 + Cn1nnc2c(C(N)=O)ncn2c1=O | 101

Same assay, conditions: second compound 1 µM; first compound 0.316 µM; stronger effect = lower value; spheroids with HUVEC and MSC

Compound | viability, T/C [%]
CC1COCCN1c1cc(-c2ccnn2C)c2ccnc(-c3ccn[nH]3)c2n1 (configuration not stated) + Cn1nnc2c(C(N)=O)ncn2c1=O | 27.2
COc1ccc([C@@H](O)c2cc(-c3ncnc4cc(N5CCOCC5)ccc34)c(F)cc2Cl)nn1 + Cn1nnc2c(C(N)=O)ncn2c1=O | 76.6
Cc1cc(C)c(CNC(=O)c2cc(-c3ccc(CN4CCOCC4)cc3)cc3c2cnn3C2CCCC2)c(=O)[nH]1 + Cn1nnc2c(C(N)=O)ncn2c1=O | 100
[2H]c1nc(C)nc([2H])c1-c1cc(NC[C@@H](C)c2cccc3c(C(=O)NC)ccnc23)ncn1 + Cn1nnc2c(C(N)=O)ncn2c1=O | 90.4

Same assay, conditions: second compound 1 µM; first compound 0.316 µM; spheroids with HUVEC and MSC

Compound | outcome
CC(C)n1c(=O)n(C)c2cnc3cc(F)c(-c4ccc(OCCCN5CCCCC5)nc4)cc3c21 + Cn1nnc2c(C(N)=O)ncn2c1=O | inactive
COc1cc(C)[nH]c(=O)c1CN1CCc2c(Cl)cc(C(OC)C3COC3)c(Cl)c2C1=O (configuration not stated) + Cn1nnc2c(C(N)=O)ncn2c1=O | inactive

Same assay, conditions: second compound 1 µM; first compound 1 µM; stronger effect = lower value; spheroids with HUVEC and MSC

Compound | viability, T/C [%]
CC(C)n1c(=O)n(C)c2cnc3cc(F)c(-c4ccc(OCCCN5CCCCC5)nc4)cc3c21 + Cn1nnc2c(C(N)=O)ncn2c1=O | 79.8
CC1COCCN1c1cc(-c2ccnn2C)c2ccnc(-c3ccn[nH]3)c2n1 (configuration not stated) + Cn1nnc2c(C(N)=O)ncn2c1=O | 13.5
COc1cc(C)[nH]c(=O)c1CN1CCc2c(Cl)cc(C(OC)C3COC3)c(Cl)c2C1=O (configuration not stated) + Cn1nnc2c(C(N)=O)ncn2c1=O | 111
COc1ccc([C@@H](O)c2cc(-c3ncnc4cc(N5CCOCC5)ccc34)c(F)cc2Cl)nn1 + Cn1nnc2c(C(N)=O)ncn2c1=O | 34.6
